In patent US10617649B2 (Zhejiang Huahai Pharmaceutical Co., Ltd, priority 2016, dated 2020):

Tests used:
[1] = Stability of azacitidine solution as a function of the preparation temperature; type: physicochemical
[2] = Content of bacterial endotoxin; settings: excipient used in Example 3
[3] = temperature of azacitidine solution higher than 6° C.

Row | Stability of azacitidine in solution, compared between temperatures ([1]; solution prepared at 4-6° C. compared to 2-3° C.) | Stability of azacitidine in solution ([1]; temperature for preparing azacitidine solution controlled at 2-6° C.) | Content of azacitidine in solution [1, 3] | Related substances in solution [1, 3] | SMILES | Content of bacterial endotoxin in excipient [2] [EU/g]
1 | the same stability | good stability | significantly decreased | significantly increased | Nc1ncn([C@@H]2O[C@H](CO)[C@@H](O)[C@H]2O)c(=O)n1 [azacitidine, Azacitidine] | –
2 | – | – | – | – | OC[C@@H](O)[C@@H](O)[C@H](O)[C@H](O)CO [mannitol, Mannitol] | 2.5
